Test results: ChEMBL document CHEMBL4834431, “Design of Dimeric Bile Acid Derivatives as Potent and Selective Human NTCP Inhibitors” (J Med Chem, 2021)
Activity calls are given as the source filed them. The calls are words filed in the database; no cut-off is given here.

Legend:
[1] = test system: Hepatitis B virus; assay: Antiviral activity against HBV infected in human HepG2-NTCP cells assessed as reduction in HBeAg secretion incubated for 24 hrs followed replacement with fresh medium and measured at day 5 post infection by ELISA; assay type: functional, organism-based
[2] = Stability in mouse liver microsomes assessed as half life at 1 uM preincubated for 5 mins followed by NADPH addition and measured upto 60 mins by LC-MS analysis; assay type: ADME, Microsome; conditions: time 65 min
[3] = Stability in mouse liver microsomes assessed as intrinsic clearance at 1 uM preincubated for 5 mins followed by NADPH addition and measured upto 60 mins by LC-MS analysis; assay type: ADME, Microsome; conditions: time 65 min, read-out: CLH
[4] = molecular target: T1, Hepatic sodium/bile acid cotransporter (Homo sapiens, UniProt Q14973); assay: Inhibition of human NTCP-mediated [3H]-TCA uptake expressed in human HepG2 cells pretreated for 2 hrs followed by [3H]-TCA addition in absence of FBS; assay type: cell-based
T1 sequence (Q14973 whole entry): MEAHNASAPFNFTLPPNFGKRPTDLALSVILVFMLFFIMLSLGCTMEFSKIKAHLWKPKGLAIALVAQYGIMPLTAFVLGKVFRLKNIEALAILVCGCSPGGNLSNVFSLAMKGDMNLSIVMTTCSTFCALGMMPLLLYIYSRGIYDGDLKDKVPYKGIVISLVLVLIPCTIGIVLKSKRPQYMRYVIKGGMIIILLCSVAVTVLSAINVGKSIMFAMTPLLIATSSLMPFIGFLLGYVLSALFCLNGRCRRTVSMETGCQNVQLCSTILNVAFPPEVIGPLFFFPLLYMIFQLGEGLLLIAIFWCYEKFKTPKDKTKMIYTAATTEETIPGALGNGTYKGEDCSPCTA

[5] = molecular target: T1, Hepatic sodium/bile acid cotransporter; assay: Inhibition of human NTCP-mediated [3H]-TCA uptake expressed in human HepG2 cells in presence of 20 % FBS; assay type: cell-based
[6] = molecular target: T1, Hepatic sodium/bile acid cotransporter; assay: Inhibition of human NTCP-mediated [3H]-TCA uptake expressed in human HepG2 cells in presence of 50 % FBS; assay type: cell-based
[7] = test system: Hepatitis B virus; assay: Antiviral activity against HBV infected in human HepG2-NTCP cells assessed as reduction in HBeAg secretion at 111 to 1000 nM incubated for 24 hrs followed by replacement with fresh medium and measured at day 5 post infection by ELISA; assay type: functional, organism-based; conditions: dose 111-1000 nM
[8] = test system: Hepatitis B virus; assay: Antiviral activity against HBV infected in human HepG2-NTCP cells assessed as reduction in intracellular HBV RNA level at 1 uM by qPCR analysis; assay type: functional, organism-based
[9] = test system: Hepatitis B virus; assay: Antiviral activity against HBV infected in human HepG2-NTCP cells assessed as reduction in intracellular accumulation of HBcAg at 1 uM by immunostaining based fluorescence microscopic analysis; assay type: functional, organism-based
[10] = test system: Hepatitis B virus; assay: Antiviral activity against HBV infected in human HepG2-NTCP cells assessed as reduction in intracellular accumulation of HBsAg at 1 uM by immunostaining based fluorescence microscopic analysis; assay type: functional, organism-based
[11] = test system: Hepatitis delta virus; assay: Antiviral activity against HDV infected in human HepG2-NTCP cells assessed as reduction in intranuclear accumulation of HDV delta antigen at 5 uM incubated for 24 hrs followed by replacement with fresh medium and measured at day 5 post infection by DAPI staining based confocal microscopic analysis (reference value: 12.1 %); assay type: functional; design: scale not given: the % may be the effect or the level left
[12] = test system: Hepatitis B virus; assay: Antiviral activity against HBV infected in human HepG2-NTCP cells assessed as reduction in HBeAg secretion at 1 uM preincubated with compound followed by viral infection by ELISA; assay type: functional, organism-based
[13] = test system: Hepatitis B virus; assay: Antiviral activity against HBV infected in human HepG2-NTCP cells assessed as reduction in HBeAg secretion at 1 uM compound added along with viral infection by ELISA; assay type: functional, organism-based
[14] = test system: Hepatitis B virus; assay: Antiviral activity against HBV infected in human HepG2-NTCP cells assessed as reduction in HBeAg secretion at 1 uM pre-infected with virus followed by compound addition by ELISA; assay type: functional, organism-based
[15] = molecular target: T1, Hepatic sodium/bile acid cotransporter; assay: Inhibition of FITC-labeled HBV Pre-S1 polypeptide binding to human NTCP expressed in HepG2 cells after 2 to 3 hrs by confocal microscopic analysis; assay type: cell-based; conditions: time 2-3 hrs
[16] = test system: HepG2; assay: Cytotoxicity against human HepG2 cells expressing NTCP assessed as reduction in cell viability at 10 uM after 48 hrs by alamar blue assay; assay type: cell-based; conditions: hepg2, 48 h
[17] = test system: Hepatocyte; assay: Cytotoxicity against primary tupaia hepatocytes expressing NTCP assessed as reduction in cell viability at 100 uM after 48 hrs by Cell-Titer Glo assay; assay type: cell-based; conditions: scandentia
[18] = test system: HepG2; assay: Effect on NTCP surface expression in human HepG2-NTCP cells assessed as reduction in NTCP surface expression level after 2 hrs by immunostaining based assay; assay type: functional, cell-based
[19] = molecular target: T1, Hepatic sodium/bile acid cotransporter; assay: Inhibition of human NTCP-mediated [3H]-TCA uptake expressed in human HepG2 cells at 2 uM; assay type: cell-based; conditions: hepg2, 2 µM
[20] = molecular target: T2, Ileal sodium/bile acid cotransporter (Homo sapiens, UniProt Q12908); assay: Inhibition of human ASBT-mediated [3H]-TCA uptake expressed in human HepG2 cells at 2 uM; assay type: cell-based; conditions: hepg2, 2 µM
T2 sequence (Q12908 whole entry): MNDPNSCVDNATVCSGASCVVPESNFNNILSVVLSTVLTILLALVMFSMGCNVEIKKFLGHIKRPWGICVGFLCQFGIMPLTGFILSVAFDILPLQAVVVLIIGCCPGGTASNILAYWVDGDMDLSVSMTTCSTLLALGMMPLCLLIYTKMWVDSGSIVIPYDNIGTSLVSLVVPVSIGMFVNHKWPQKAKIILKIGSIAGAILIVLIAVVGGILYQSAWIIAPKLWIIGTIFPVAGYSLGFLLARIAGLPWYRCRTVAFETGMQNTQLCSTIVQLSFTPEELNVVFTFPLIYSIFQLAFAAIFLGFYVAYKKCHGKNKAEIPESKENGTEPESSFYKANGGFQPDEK

[21] = molecular target: T1, Hepatic sodium/bile acid cotransporter; assay: Inhibition of human NTCP-mediated [3H]-Estrone sulfate uptake expressed in human HepG2 cells at 2 uM; assay type: cell-based; conditions: hepg2, 2 µM
[22] = molecular target: T3, Solute carrier organic anion transporter family member 1B1 (Homo sapiens, UniProt Q9Y6L6); assay: Inhibition of human OATP1B1-mediated [3H]-Estrone sulfate uptake expressed in human HepG2 cells at 2 uM; assay type: cell-based; conditions: hepg2, 2 µM
T3 sequence (Q9Y6L6 whole entry): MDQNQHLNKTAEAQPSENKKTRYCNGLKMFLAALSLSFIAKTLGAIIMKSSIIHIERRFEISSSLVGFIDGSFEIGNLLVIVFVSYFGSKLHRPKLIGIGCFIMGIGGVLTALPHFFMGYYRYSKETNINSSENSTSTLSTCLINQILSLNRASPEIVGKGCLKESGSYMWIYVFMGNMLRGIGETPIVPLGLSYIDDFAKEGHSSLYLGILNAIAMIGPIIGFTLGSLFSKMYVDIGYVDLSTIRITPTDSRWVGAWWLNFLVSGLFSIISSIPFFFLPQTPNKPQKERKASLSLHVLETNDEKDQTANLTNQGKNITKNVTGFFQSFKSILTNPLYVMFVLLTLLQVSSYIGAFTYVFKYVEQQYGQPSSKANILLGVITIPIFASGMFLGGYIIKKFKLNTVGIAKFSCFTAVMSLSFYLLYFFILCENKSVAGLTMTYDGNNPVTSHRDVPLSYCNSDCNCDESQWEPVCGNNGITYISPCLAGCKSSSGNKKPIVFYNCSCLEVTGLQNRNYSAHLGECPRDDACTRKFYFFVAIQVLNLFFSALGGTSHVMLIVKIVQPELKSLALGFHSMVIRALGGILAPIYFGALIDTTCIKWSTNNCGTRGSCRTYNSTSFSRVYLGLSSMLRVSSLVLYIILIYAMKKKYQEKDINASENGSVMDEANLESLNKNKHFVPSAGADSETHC

[23] = test system: Hepatitis B virus; assay: Antiviral activity against HBV infected in human HepG2-NTCP cells assessed as reduction in HBeAg secretion preincubated for 2 hrs followed by viral infection by ELISA; assay type: functional, organism-based
[24] = molecular target: T1, Hepatic sodium/bile acid cotransporter; assay: Inhibition of human NTCP-mediated [3H]-TCA uptake expressed in human HepG2 cells; assay type: cell-based; conditions: human, hepg2
[25] = test system: HepG2; assay: Inhibition of monkey NTCP-mediated [3H]-TCA uptake expressed in human HepG2 cells; assay type: cell-based; conditions: Macaca mulatta
[26] = molecular target: T4, Hepatic sodium/bile acid cotransporter (Mus musculus, UniProt O08705); assay: Inhibition of mouse NTCP-mediated [3H]-TCA uptake expressed in human HepG2 cells; assay type: cell-based
T4 sequence (O08705 whole entry): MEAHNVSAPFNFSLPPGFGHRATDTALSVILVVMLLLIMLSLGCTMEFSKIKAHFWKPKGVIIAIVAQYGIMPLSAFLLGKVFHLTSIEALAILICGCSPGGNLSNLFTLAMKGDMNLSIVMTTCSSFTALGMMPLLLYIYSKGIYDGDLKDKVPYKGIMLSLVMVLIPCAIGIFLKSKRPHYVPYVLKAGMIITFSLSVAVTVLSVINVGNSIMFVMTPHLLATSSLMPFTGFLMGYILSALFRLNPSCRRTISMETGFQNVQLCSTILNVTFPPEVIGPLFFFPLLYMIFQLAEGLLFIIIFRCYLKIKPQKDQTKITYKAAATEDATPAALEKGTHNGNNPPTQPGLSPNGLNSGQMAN

[27] = test system: HepG2; assay: Inhibition of tree shrew NTCP-mediated [3H]-TCA uptake expressed in human HepG2 cells; assay type: cell-based; conditions: Scandentia
[28] = molecular target: T1, Hepatic sodium/bile acid cotransporter; assay: Inhibition of human NTCP-mediated NQL-064 uptake expressed in human HepG2 cells; assay type: cell-based
[29] = molecular target: T4, Hepatic sodium/bile acid cotransporter; assay: Inhibition of mouse NTCP-mediated NQL-064 uptake expressed in human HepG2 cells; assay type: cell-based
[30] = test system: HepG2; assay: Inhibition of monkey NTCP-mediated NQL-064 uptake expressed in human HepG2 cells; assay type: cell-based; conditions: Macaca mulatta
[31] = test system: HepG2; assay: Inhibition of tree shrew NTCP-mediated NQ-064 uptake expressed in human HepG2 cells; assay type: cell-based; conditions: Scandentia

C[C@H](CCC(=O)N[C@@H]1CC[C@@]2(C)[C@@H](C1)C[C@H](O)[C@@H]1[C@@H]2CC[C@]2(C)[C@@H]([C@H](C)CCC(=O)NCCS(=O)(=O)O)CC[C@@H]12)[C@H]1CC[C@H]2[C@@H]3[C@@H](O)C[C@@H]4C[C@H](O)CC[C@]4(C)[C@H]3CC[C@]12C
IC50 [1]: 5 nM | half-life at 1 µM [2]: 0.7 min | microsomal CLint at 1 µM [3]: 994 µL/min/mg | IC50 [4]: 0.3 nM

C[C@H](CCc1cn([C@@H]2CC[C@@]3(C)[C@@H](C2)C[C@H](O)[C@@H]2[C@@H]3CC[C@]3(C)[C@@H]([C@H](C)CCC(=O)NCCS(=O)(=O)O)CC[C@@H]23)nn1)[C@H]1CC[C@H]2[C@@H]3[C@@H](O)C[C@@H]4C[C@H](O)CC[C@]4(C)[C@H]3CC[C@]12C
IC50 [1]: 24 nM | half-life at 1 µM [2]: 12.6 min | microsomal CLint at 1 µM [3]: 55.2 µL/min/mg | IC50 [5]: > 10000 nM | IC50 [6]: > 10000 nM | IC50 [4]: 24.5 nM

C[C@H](CCC(=O)NCCS(=O)(=O)O)[C@H]1CC[C@H]2[C@@H]3[C@@H](O)C[C@@H]4C[C@H](OCc5cn([C@@H]6CC[C@@]7(C)[C@@H](C6)C[C@H](O)[C@@H]6[C@@H]7CC[C@]7(C)[C@@H]([C@H](C)CCC(=O)NCCS(=O)(=O)O)CC[C@@H]67)nn5)CC[C@]4(C)[C@H]3CC[C@]12C
IC50 [1]: 12 nM | Activity [7]: Active | Activity [8]: Active | Activity [9]: Active | Activity [10]: Active | Activity [11]: 1.8% | Activity [12]: Active | Activity [13]: Active | Activity [14]: inactive | inhibition (INH) [15]: Active | Activity [16]: Non-Toxic | Activity [17]: Non-Toxic | Activity [18]: inactive | inhibition (INH) [19]: Active | inhibition (INH) [20]: Not Active | inhibition (INH) [21]: Active | inhibition (INH) [22]: Not Active | Activity [23]: inactive | inhibition (INH) [24]: Active | inhibition [25]: inactive | inhibition (INH) [26]: Not Active | inhibition [27]: inactive | inhibition (INH) [28]: Active | inhibition (INH) [29]: Not Active | inhibition [30]: inactive | inhibition [31]: inactive
